Results on one molecule are retold here after patent US20150366998A1, “ORAL DELIVERY OF DRUG ACTIVES IN LABORATORY ANIMALS USING FAST-DISSOLVING ORAL FILMS” (priority 2014, published 2015).

Series [1] can be described thus: 30-day oral film study: body weight, food intake, organ weight to tibia length ratio, tolerability. Type of series: in vivo, mice. The text has this:
In this study, there were 4 groups.
IVM was given for 30 days, 5 times per week for 6 weeks. […] After being presented with the tip of the gavage needle, mice would self-administer the oral films.
Ethanol intake was expressed as g/kg/24-h and summarized using means±SEM across groups. A two-way ANOVA was used to analyze 10E intake between the 4 groups over the 30 days of treatment. A one-way ANOVA was used to compare mean 10E intake, 10E preference, water intake, fluid intake, food intake, mouse weight, and organ weight/tibia length ratio across the 4 groups. GraphPAD Prism software (San Diego, Calif.) was used for data analysis.

Series [2] concerns mice. Conditions: cited from earlier work.
Series [3] concerns female WT mice. Put plainly: 24-h two-bottle choice paradigm, 10% ethanol in water (10E) vs water, IVM oral thin film or gavage. Type of series: in vivo.
The mark [4] stands for this setting: doses needed to produce the anti-alcohol effects (Bortolato 2013).
[5] abbreviates: IVM 0.21 mg oral thin film, 30 days, vs control and placebo groups.

Entries after “also recorded” stand apart in the source; their conditions may differ.

In the case of `CC[C@H](C)[C@H]1O[C@]2(CC[C@@H]1C)C[C@@H]1C[C@@H](C/C=C(\C)[C@@H](O[C@H]3C[C@H](OC)[C@@H](O[C@H]4C[C@H](OC)[C@@H](O)[C@H](C)O4)[C@H](C)O3)[C@@H](C)/C=C/C=C3\CO[C@@H]4[C@H](O)C(C)=C[C@@H](C(=O)O1)[C@]34O)O2` [IVM, ivermectin], the “organ weight to tibia length ratio” value in series [1] (IVM 0.21 mg oral thin film, 30 days, 6 organs analyzed, vs control and placebo groups) was “no significant difference; also recorded: without significantly affecting”. For the same molecule, the “animal weight gain / change in body weight” value in series [1] (IVM 0.21 mg oral thin film, 30 days, vs no action and placebo) was “similar; also recorded: without significantly affecting”. For the same molecule, the “tolerability / overt signs of toxicity” value in series [1] (chronic (30 day) oral administration of IVM via oral film) is given as “well tolerated; also recorded: without causing overt signs of toxicity”. For the same molecule, in series [2] (IVM regimen producing anti-alcohol effects), the “rewarding properties (addiction liability)” value is listed as “did not exert rewarding properties”. The “ethanol intake in mice” value in series [2] (acute and 7 day administration (Yardley 2012)) is “significantly reduce”. Besides, in series [2] (setting [4]), the anxiolytic-like effects result is given as “elicited anxiolytic-like effects” and the “overt signs of toxicity” value was “did not induce overt signs of toxicity”. Moreover, the “10E (alcohol) intake” value in series [3] (IVM 0.21 mg oral thin film, 30 days, 5 times per week for 6 weeks, vs no action and placebo film) is recorded as “drank consistently less 10E; also recorded: effective in reducing 10E intake; also recorded: significantly reduces”. Also, in series [3] (setting [5]), the 10E preference entry is reported as “significantly less; also recorded: significantly reduces” and the total fluid intake entry is “similar; also recorded: without significantly affecting”. The “decrease of 10E intake compared to baseline” value in series [3] (IVM 0.21 mg via fast dissolving oral film, 24-h two bottle choice, female WT mice, n=8, p<0.001 vs baseline) is on record as “approximately 40%”. Moreover, the 10E intake entry in series [3] (IVM 5 mg/kg, oral gavage (placebo gavage corn oil)) is on record as “decreased 10E intake”.
